From patent US6716596B2, “Agents for replacement of NAD+/NADH system in enzymatic reactions” (The Regents of the University of California, priority 2001, dated 2004)
Structures can show the parent of a compound that is named as a salt.

Tests used:
[1] = regioselective reduction of biomimics with catalyst precursor (2) and sodium formate, followed by 1H NMR; conditions: disappearance of pyridinium signals vs [(CH3)4N]OTf during first 2 hours; compound (1a) set to 1.0
Procedure: The relative rates, seen tabulated in FIG. 1C, were determined by observing disappearance of the pyridinium signals versus an internal standard, [(CH3)4N]OTf (tetramethylammonium triflate), during the first 2 hours, where the relative rate of 1-benzylnicotinamide triflate (1) was set to 1.0. The turnover frequencies were calculated by the formation of mmol of product/mmol of catalyst/hour. The total turnover number in 24 hours was ˜95 for all substrates that gave product. The reactions were conducted in presilylated J. Young NMR tubes and were followed by ^1H NMR.
The electronic effect of differently substituted nicotinamide substrates was determined by their relative rates. The relative rates of these compounds were determined by observing the disappearance of the pyridinium signals compared to interval standard, [(CH3)4N]OTf, during the first 2 hours, where the relative rate of compound (1a) was 1.0.
In a typical reaction, a J. Young NMR tube was charged, biomimic substrates (1a)-(1i) (1.0 mol), 2 (1% mol), and HCO2Na (1.1 mol) used as the hydride source and a Schlenk techniques were conducted to deoxygenate the solid mixture. A diluted solvent was added to these solids for compounds (1a)-(1i), the solvent was D2O-THF-d8 (1=1 0.75 mL, deoxygenated), and the NMR tube was placed in a liquid nitrogen bath. The contents were further degassed by two successive freeze-pump-thaw cycles. After thawing out the reaction mixture, the J. Young NMR tube was immediately put in a salted ice-bath and covered with aluminum foil. The reaction was then followed by ^1H NMR spectroscopy at 26° C. temperature, after a speedy thawing out.
The given relative rates and turnover frequencies were determined by decreasing integration of the corresponding pyridinium salts measured against an internal standard, (CH3)4N(OTf), during the first 2 h of the reaction. The ratios of the 1,4- and 1,6-dihydronicotinamide derivatives of compounds (1a), (1b) and (1d)-(1g) were obtained by comparison of the resonance signals with those of authentic samples, where the diagnostic signal is the resonance for —CH2Ph moiety which can be identified unambiguously in the ^1H NMR spectrum.

[2] = target: T1, horse liver alcohol dehydrogenase (HLADH) (Equus caballus, UniProt P00327); assay: HLADH enzymatic chiral reduction of ketones with biomimic co-factor regeneration; format: biochemical
T1 construct: purchased Sigma
T1 sequence (P00327 2-375 limits assumed): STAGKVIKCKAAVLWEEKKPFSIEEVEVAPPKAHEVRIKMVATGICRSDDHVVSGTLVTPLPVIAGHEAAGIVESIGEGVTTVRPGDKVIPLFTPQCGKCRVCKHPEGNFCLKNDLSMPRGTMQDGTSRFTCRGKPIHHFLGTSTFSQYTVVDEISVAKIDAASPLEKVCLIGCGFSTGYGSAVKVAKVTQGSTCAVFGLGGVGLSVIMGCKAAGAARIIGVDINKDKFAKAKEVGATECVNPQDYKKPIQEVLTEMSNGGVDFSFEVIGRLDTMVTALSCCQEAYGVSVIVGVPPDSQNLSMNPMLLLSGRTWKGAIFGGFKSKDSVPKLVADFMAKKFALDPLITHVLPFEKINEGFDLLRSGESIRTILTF
Procedure: FIG. 7 presents structures of ketone substrates 12-15 used for biomimic chiral synthesis of corresponding alcohols. Conversion of the substrates 12-15 to their corresponding alcohols are expressed in % yield, and TOF in d^−1 and S-enantiomer excess (ee) are also shown for each conversion. Corresponding values obtained with NAD^+ are given in parenthesis. The S-enantiomeric excess (ee) was determined by GLC with a modified β-cyclodextrin capillary column.
[Cp*Rh(bpy)(H2O)]OTf2 (1.9 mg, 2.61×10^−3 mmol), sodium formate (17.8 mg, 261.69×10^−3 mmol), NAD^+ (8.1 mg, 11.23×10^−3 mmol) and HLADH (10 units) were placed in a 10 mL Schlenk flask, and Schlenk techniques were followed to deoxygenate the solid mixture.
Under positive argon pressure, 5 mL of potassium phosphate buffer (100 mM, pH=7.02, deoxygenated) and carbonyl substrate (83.58×10^−3 mmol, deoxygenated) were added via syringe. The reaction flask was immediately securely capped with a glass-stopper and shaken with a shaker in 30° C. water-bath. The reaction was monitored by gas chromatography (GC), equipped with a β-cyclodextrin column (Supelco, β-DEX-225), and the products were identified by comparing the retention time with the corresponding authentic chiral samples and were confirmed by GC-MS. The enantiomeric excess of the products was determined directly by their relative area in the chromatogram. The progress of the reaction was obtained by mixing the reaction aliquot with an internal standard (cyclohexanol in phosphate buffer), and then calibrating the measured relative area in the chromatogram with their corresponding response factors. The reaction was monitored for 24 hours.
The same procedure as described in section A was followed, except that NAD^+ was substituted with any one of the biomimic compounds of the invention.

[3] = stability observations (light, air, solvent); format: physicochemical
[4] = competitive regioselective substrate reduction experiments with rhodium catalyst precursor (2)
Procedure: In order to establish whether the σ-donating ability or the electron-withdrawing effect of the 3-substituent of the 1-benzylnicotinamide was the important parameter, several competitive substrate reduction experiments were performed.
For this purpose, the compound (1a) 1-benzylnicotinamide, was reduced with rhodium catalyst precursor (2) in the presence of its alternatively substituted derivatives, compounds (1e), substituted with —C(O)—CH3, (1g), substituted with (—CN), (1d), substituted with —C(S)NH2 or (1f), substituted with —C(O)OCH3, and their competitive reduction was determined.

recognition by HLADH as hydride catalyst of the chiral conversion [2]: recognizes
turnover frequency of chiral ketone reduction ([2]; ketone (12) reduced by HLADH with co-factor regeneration, 24 hours): ~30 day⁻¹
stability [3]: more stable in acqueous/organic solvent
Compound: NC(=O)c1ccc[n+](Cc2ccccc2)c1 [Compound 1a, 1-Benzylnicotinamide, Triflate Salt]
relative rate of regioselective reduction [1]: 1.0
times faster than the —C(O)CH3 analog (1e) ([4]; competitive reduction of (1a) with (1e)): 1.1 times
times faster than the —CN analog (1g) ([4]; competitive reduction of (1a) with (1g)): 1.3 times
